Test results as given in patent publication US4043994A, “New pentapeptides and methods for their production” (Parke, Davis & Company, priority 1976, dated 1977).
Where “and” joins values, the source holds several entries; their conditions need not be identical. Equal entries are not always repeated. Ends that are not written are not given here.

Tested on: LRF (luteinizing hormone release factor) induced luteinizing hormone (LH) release
Experiment: In vitro LRF antagonist test in rat anterior pituitary cell cultures
Type: cell-based
Settings: for LH Value: culture medium
Text: Pentapeptides of this invention were screened for LRF antagonist activity in vitro using rat anterior pituitary cell cultures as described by Vale et. al. [Endocrinology, 91, 562 (1972)]. The inhibition of LRF (luteinizing hormone release factor) induced luteinizing hormone (LH) release into the culture medium is the endpoint in this in vitro bioassay.

[1] = compound 1×10^-6 molar, LRF 2.5×10^-10 molar
[2] = compound 1×10^-6 molar, LRF 5×10^-10 molar
[3] = compound 5×10^-6 molar, LRF 5×10^-10 molar

| Compound | % LH Release Inhibition [1] [%] | LH Value [1] [ng/mL] | % LH Release Inhibition [2] [%] | LH Value [2] [ng/mL] | % LH Release Inhibition [3] [%] | LH Value [3] [ng/mL] | LH Value (LRF alone 2.5×10^-10 molar) | LH Value (LRF alone 2.5×10^-10 molar, listed as LRF control) [ng/mL] | LH Value (LRF alone 5×10^-10 molar) [ng/mL] |
| --- | --- | --- | --- | --- | --- | --- | --- | --- | --- |
| CCNC(=O)C1CCCN1C(=O)[C@@H](C)NC(=O)[C@H](Cc1ccc(OCc2ccccc2)cc1)NC(=O)[C@H](COCc1ccccc1)NC(=O)[C@@H](Cc1c[nH]c2ccccc12)NC(=O)OC(C)(C)C (mixture of isomers) [N^α -t-Butoxycarbonyl-D-tryptophyl-O-benzyl-L-seryl-O-benzyl-L-tyrosyl-D-alanyl-DL-proline N-ethylamide] | 84 | 10.61 | 43 | 34.51 | 90 | 14.02 |  |  |  |
| LRF Control: luteinizing hormone releasing factor, also referred to as luteinizing hormone releasing hormone, or LH-RH; the stimulus in the assay (QHWSYGLRPG; ends and bridges not checked; UniProt P01148 24-33, looked up) [reference compound] |  |  |  |  |  |  | 49.90 ng/mL and 28.52 ng/mL | 51.62 | 52.93 |
| N^α -t-Butoxycarbonyl-N^im -benzyl-L-histidyl-O-benzyl-L-seryl-O-benzyl-L-tyrosyl-D-alanyl-L-leucine methyl ester | 72 | 20.26 |  |  |  |  |  |  |  |
| N^α -t-Butoxycarbonyl-N^im -benzyl-L-histidyl-O-benzyl-L-seryl-O-benzyl-L-tyrosyl-D-alanyl-L-leucyl hydrazide | 71 | 19.35 |  |  |  |  |  |  |  |
